{
  "source": "patent US20210340178A1",
  "about": "“NONAPEPTIDE PREVENTING INCREASED HYPERPERMEABILITY OF VASCULAR ENDOTHELIUM” (FEDERALNOYE GOSUDARSTVENNOE BUDGETNOE UCHREZHDENIE …, priority 2018, published 2021)",
  "key": {"[1]": {"conditions": "rabbit, in vivo", "quoted_text": "(§3) PIK2 dose of 5 mg/kg was calculated individually for each rabbit and administered into marginal ear vein in a final volume of 1.7-1.9 mL in sterile physiological saline. Stock concentration of the tested substance was 10 mg/mL.\n(§4) During the 24-hrs testing period, the overall health status and behavior were monitored (appetite, motion activity, hair coat condition).\n(§5) Before injection of test substances (baseline) and 4 hrs and 24 hrs after the injection, the following parameters were tested in whole venous blood samples (3.0-3.5 mL) collected from a marginal ear vein red blood cell (RBC) count, hematocrit, hemoglobin level, mean RBC volume, mean corpuscular hemoglobin, total leukocyte, lymphocyte, and granulocyte counts and their percentages, platelet count, and mean platelet volume. In parallel, the following biochemical parameters were measured in serum total protein, bilirubin, urea, creatinine, glucose, total cholesterol, triglycerides, and activities of alkaline phosphatase, lactate dehydrogenase, aspartate aminotransferase, and alanine aminotransferase. Blood cell count was performed using an Abacus junior vet (Austria) hematological cell counter; biochemical studies were performed using a Targa-2000 (Italy) instrument."}, "[2]": {"experiment": "Acute toxicity in mice, single injection", "type": "in vivo", "conditions": "mouse, in vivo; mice, Table 3; read-out: Toxicity LD50 in mice", "procedure": "(§1) The study was conducted in 82 BALB/c mice (both males and females, body weight 18-24 g) obtained from the animal facility of the Scientific Center for Biomedical Technologies of the Federal Medico-Biological Agency of the Russian Federation (SCBMT). The animals were certified and otherwise healthy. The animals were kept in T-3 cages (5-10 animals per cage) with artificial 12 hrs light-dark cycles and 16× per hour forced air ventilation, temperature of 20-22° C. and 50-65% humidity on wood chips sterilized by hot air. The animals had free access to drinking water and PK-120-1 mouse cubes (GOST P50258-92; Laboratorsnab LLC, Russia).\n(§2) PIK2 and PIK7 peptides were dissolved in water and administered to mice as a single intraperitoneal injection. The animals were followed for 14 days after peptide injections. An increasing dosage scheme was applied where each tested dose surpassed the previous dose by 50%. The lowest dose of the active substance was determined that caused animal death."}, "BALB/c mice": {"tested_on": "BALB/c mice", "experiment": "Acute toxicity in mice, single injection", "type": "in vivo", "procedure": "as §1, §2"}, "[3]": {"experiment": "Peptide half-lives in human plasma in vitro (1H-NMR spectroscopy)", "type": "in vitro ADME", "conditions": "for half-life: human, plasma", "procedure": "Whole blood (100 mL) was collected from healthy donors to 50-mL tubes containing 5 mL of a preservative (130 mM citrate in phosphate buffered saline (PBS), pH 7.4). The blood was incubated for 15-20 min at room temperature followed by centrifugation at 1500 g for 15 min at 18° C. The supernatants were transferred to clear tubes and centrifuged as above. Dry NaBr was added to the plasma (280 mg per 1 mL of plasma). After dissolution of NaBr, the plasma (approx. 30 mL) was transferred to centrifuge tubes (Type 45Ti rotor, Beckman, USA) and layered with 20 mL of a solution (specific mass of […]), which was prepared as follows—11.42 g of NaCl and 100 mg of ethylenediaminetetraacetic acid (EDTA) were dissolved in distilled water in a final volume of 1 L (pH 7.4) and 281.44 g of NaBr was added. The plasma was centrifuged at 40,000 rpm for 48 hrs. The upper dark-yellow fraction containing lipoproteins and the colorless buffer fraction were discarded leaving approx. 1-cm high buffer above the apparent plasma border. Portions of plasma obtained from one donor were pooled and dialyzed for 36 hrs against 4 L of PSB free of Ca^2+ and Mg^2+(MP Biomedicals, USA) in dialysis bags with 12-14 kDa pore sizes. The dialysis procedure was repeated twice with fresh buffer changed every 24 hrs. After the dialysis, the plasma was centrifuged at 25,000 rpm (Type 45Ti rotor, Beckman, USA) for 15 min at 4° C. The supernatant fraction was collected and lyophilized. The dry matter was dissolved in D2O in a final volume equal to the plasma volume before NaBr was added, lyophilized again, dissolved in the same volume of D2O, and stored in 1-mL aliquots at −20° C. before use.\n^1H-NMR spectroscopy was employed to analyze relative degradation of PIK7 (the claimed peptide) and MLC11-19 (the structural analogue) in human plasma. ^1H-NMR spectroscopy allows simultaneous direct monitoring the amounts of original full-length peptide and its fragments during the course of enzymatic hydrolysis (Isakova et al., 1986). Stability of a peptide, its degradation pathway(s) and a half-life estimate are available from a comparison of spectra obtained at different time points after the addition of a peptide to plasma. ^1H-NMR spectra were obtained using a WM-500 spectrometer (Bruker, Germany) at 37° C. Chemical shifts in ^1H-NMR spectra were measured relative to an internal standard (2,2-dimethyl-2-silapentane-5-sulfonate sodium salt). The signals were referenced by the double-resonance method. The resonances from peptide protons were identified by the differential spectroscopy method, i.e. the spectrum of blood plasma was subtracted from each spectrum obtained in the presence of peptide of interest. Peptide concentrations were 3 mg/ml.\nThese indicate the peptide N-terminus degradation. […] Therefore, the claimed peptide has an increased life-span in plasma that allows for long-lasting maintenance of its effective concentrations necessary to decrease the endothelial hyperpermeability under emergency conditions. Moreover, an increased life-time allows attaining the desired therapeutic effect with lower (as compared to homologues) peptide concentrations."}, "[4]": {"tested_on": "myosin regulatory light chain (RLC) phosphorylation in EA.hy926 endothelial cells", "experiment": "Thrombin-induced myosin RLC phosphorylation in endothelial cells (immunoblotting)", "type": "cell-based", "conditions": "peptide 100 μM, 1 hr; thrombin 100 nM, 20 min", "procedure": "FIG. 4. Inhibition of the thrombin-induced RLC phosphorylation in EA.hy926 endothelial cells by PIK2, PIK7 ([D-Lys^12]-MLC11-19), or MLC11-19 MLCK peptide inhibitors. Inhibitors were added up to 100 μM, n=3-5. p<0.05 for PIK2, PIK7 vs control (0, 20 min). p<0.05 for PIK2 vs PIK7 (0, 20 min).\nInhibitory effects of the claimed peptide (PIK7), its prototype (PIK2), and analogue (MLC11-19) were compared in an assay of myosin regulatory light chain (RLC) phosphorylation in vitro as described in Example 4.\nAntagonistic effects of MLCK peptide inhibitors on the thrombin-mediated RLC phosphorylation in EA.hy926 endothelial cells were tested as follows. The cells were grown in 35-mm dishes in DMEM at 37° C. and the 5% CO2 atmosphere until the monolayer formed. Then, the cells were serum-starved while simultaneously incubated with 100 μM MLCK inhibitors at 37° C., 5% CO2 for 1 hr (control, 0 min). Next, the cells were stimulated with 100 nM thrombin for 20 min and collected on ice, i.e. the medium was decanted, the cells were washed with cold PBS and lysed with 100 μL of Laemmli denaturing electrophoresis buffer. The sample proteins were separated by SDS-PAGE and proceeded to immunoblotting with anti-total, anti-monophosphorylated, and anti-diphosphorylated RLC. […]"}, "Chinchilla rabbits": {"tested_on": "Chinchilla rabbits", "experiment": "Tolerance of a single intravenous injection in Chinchilla rabbits", "conditions": "i.v. 10 mg/kg", "quoted_text": "as §3, §4, §5"}},
  "note": "Entries after “also recorded” stand apart in the source; their conditions may differ. Where two headings read alike, the source gives them in different places. Non-standard residues stand in square brackets, D forms with d. Residues, ends and D or L forms follow the SMILES beside them.",
  "data": [
    {"smiles": "C[C@H](NC(=O)[C@H](C)NC(=O)[C@H](CCCNC(=N)N)NC(=O)[C@@H](CCCCN)NC(=O)[C@@H](N)CCCCN)C(=O)N[C@@H](CCCNC(=N)N)C(=O)N[C@@H](C)C(=O)N[C@H](C(=O)N[C@@H](CO)C(N)=O)[C@@H](C)O", "note": "[PIK7, H-Lys-D-Lys-Arg-Ala-Ala-Arg-Ala-Thr-Ser-NH2] (H-K[dK]RAARATS-NH2)", "values": [
      {"measurement": "LD50", "setting": "[1]", "result": "> 10", "unit": "mg/kg"},
      {"measurement": "LD50", "setting": "[2]", "result": "> 1000", "unit": "mg/kg"},
      {"measurement": "lowest lethal dose, fold higher than with PIK2", "setting": "BALB/c mice; BALB/c mice, single intraperitoneal injection", "result": 47, "unit": "fold"},
      {"measurement": "lowest dose of the active substance that caused animal death", "setting": "BALB/c mice; BALB/c mice, single intraperitoneal injection, followed 14 days", "result": 1274, "unit": "mg/kg"},
      {"measurement": "signs after a toxic dose", "setting": "BALB/c mice; mice, single intraperitoneal injection of a toxic dose", "result": "movement retardation and death within the following 24 hrs"},
      {"measurement": "T1/2, half-life in human plasma in vitro", "setting": "[3]; 1H-NMR, 37° C., peptide 3 mg/ml", "result": "≥320", "unit": "min"},
      {"measurement": "resistance to proteolysis as compared to the structural analogue (MLC11-19)", "setting": "[3]; human plasma in vitro", "result": "by one order of magnitude"},
      {"measurement": "half-life", "setting": "[3]; 1H-NMR, 37° C., peptide 3 mg/ml (FIG. 2), read-out: half-life in human plasma", "result": "≥ 420", "unit": "min"},
      {"measurement": "half-life", "setting": "[3]; 1H-NMR, 37° C., peptide 3 mg/ml, read-out: T1/2, half-life in human plasma in vitro", "result": "> 320", "unit": "min"},
      {"measurement": "inhibition of thrombin-induced RLC phosphorylation", "setting": "[4]", "result": "inhibited myosin RLC phosphorylation in endothelial cells with efficacy higher than that of either the prototype, PIK2, or the analogue, MLC11-19; also recorded: inhibits RLC phosphorylation in endothelial cells and its efficacy is superior to both the prototype, PIK2, and the analogue, MLC11-19"},
      {"measurement": "other standard hematological and biochemical parameters", "setting": "Chinchilla rabbits", "result": "not altered"},
      {"measurement": "overall health status and behavior", "setting": "Chinchilla rabbits; 24-hrs testing period", "result": "no significant changes either in the overall health status or behavior"},
      {"measurement": "triglyceride levels", "setting": "Chinchilla rabbits; 24 hrs after administration, baseline 1.63 mmol/L", "result": 2.79, "unit": "mmol/L"},
      {"measurement": "hematocrit", "setting": "Chinchilla rabbits; 24 hrs after administration, baseline 38.81±1.49%", "result": "35.90±0.18", "unit": "%"},
      {"measurement": "total plasma protein", "setting": "Chinchilla rabbits; 24 hrs after administration, baseline 73.6±2.58 g/L", "result": "69.2 ± 0.47", "unit": "g/L"},
      {"measurement": "hemoglobin level", "setting": "Chinchilla rabbits; 24 hrs after administration, baseline 131±5 g/L", "result": "120 ± 7", "unit": "g/L"},
      {"measurement": "survival", "setting": "Chinchilla rabbits; group of 4", "result": "all animals survived"}
    ]}
  ]
}
